Entries after “also recorded” stand apart in the source; their conditions may differ. Residues, ends and D or L forms follow the SMILES beside them.
Key:
[1] = system: anti-EBNA antibodies; experiment: ELISA with polypeptide as solid phase antigen, detecting anti-polypeptide antibodies in sera; format: binding, human; conditions: for Average titer of Progressive Systemic Schlerosis (PSS) patients to polypeptide compared with normals: high and low serum dilutions; for Reaction of VCA- sera with polypeptide: panel of 19 VCA- sera; for Reactivity of sera of EBV non-immune donors to polypeptide: panel of 27 EBV non-immune (VCA-) donors; for Number of 91 anti-EBNA positive (ACIF) sera positive against polypeptide: sera at 1:20 dilution; for Antibodies binding to polypeptide before and after EBV-induced infectious mononucleosis: sera of two subjects; for Reaction of sera of clinically normal VCA+ individuals with polypeptide: two serum dilutions
Description: A solution containing a substrate for the enzyme label such as hydrogen peroxide for peroxidase and a color-forming dye precursor such as o-phenylenediamine, or p-nitrophenyl phosphate for alkaline phosphatase is thereafter admixed with the solid phase.
(§1) Anti-peptide antibody binding and inhibition studies were carried out by an enzyme-linked immunosorbent assay (ELISA) as described below.
(§2) Briefly, microtiter wells (Costar, #3590, Cambridge, Mass.) were coated with individual polypeptides as antigens by adding 100 microliters (ul) of BBS [10 millimoler (mM) sodium borate (pH 8.3), 150 mM NaCl] containing polypeptide at a concentration of 10 micrograms per milliliter (ug/ml). Contact between the wells and antigen-containing solution was maintained for a predetermined time, typically 15 minutes, and at 20 degrees C., to form an antigen-coated solid phase. The solid and liquid phases were separated and the wells were washed three times with BBS.
Non-specific binding sites were blocked by admixing 200 microliters of 1% bovine serum albumin (BSA) in each well to form another solid-liquid phase admixture, and maintaining that solid-liquid phase admixture for 30 minutes, at 20 degrees C. The phases were separated and excess, unbound BSA was removed by washinq three times with BBS.
[…] Contact between the diluted sera and the antigen-coated solid phase was maintained for a predetermined time such as 1 hour, and at 20 degrees C., for an immunoreactant to form. The solid and liquid phases were separated, and the solid phase; i.e., antigen-coated, immunoreactant-containing wells, was then washed three times with BBS.
The antibodies in human sera that immunoreacted with an adsored polypeptide were detected using an indicating means comprising alkaline phosphatase-conjugated goat anti-human Ig antibody (Tago, Burlington, CA). The antibodies in rabbit sera that immunoreacted with an adsorbed polypeptide were detected using an indicating means comprising alkaline phosphatase-conjugated goat anti-rabbit Ig antibody (Kirkegard & Perry Laboratories, Inc., Gaithersburg, Md.). In either instance, 100 microliters of the indicating antibody diluted 1:300 in BBS were added per well to form a further solid-liquid phase composition. This solidliquid phase composition was maintained for a predetermined time, one hour, for the formation of a reaction product between the human antibodies bound to the solid phase and the indicating means, and at 20 degrees C.

[2] = system: EBNA; experiment: Immunoblotting of whole cell extracts with rabbit anti-polypeptide antisera; format: binding, Epstein-Barr virus; conditions: for Inhibition of recognition of EBNA by anti-P62 serum: anti-P62 serum 1:10 incubated with 40 ug/ml polypeptide for one hour
Description: Exemplary receptor molecules containing antibody combining sites of this invention raised in rabbits to the polypeptides shown in Table 1 were studied using the immunoblotting procedures of Towbin, et. al., Proc. Natl. Acad. Sci., U.S.A., 76:4350-4354 (1979) and Billings, et. al., Proc. Natl. Acad. Sci., U.S.A., 80:7104-7108 (1983). Further details are provided in the Materials and Methods section (II).
Extracts of EBNA producing and non-producing (control) cells were prepared to determine if receptor molecules of this invention were useful for diagnosing EBNA expression. Cells from cultures described hereinabove were washed in phosphate-buffered saline (PBS; 150 mM NaCl, 10 mM sodium phosphate, pH 7.4) containing 0.2 mM phenylmethylsulfonyl fluoride, swollen for 5 minutes in reticulocyte standard buffer (RSB; 10 mM NaCl, 10 mM Tris-HCl, pH 7.4, 1.5 mM MgCl2, 0.2 mM phenylmethylsulfonyl fluoride), and lysed by sonication in 3-5 volumes of RBS adjusted to 0.2-0.35 molar (M) NaCl. After 30 minutes on ice, the sonicate was centrifuged at 10,000×g for 15 minutes to remove cellular debris.
Cell extracts obtained above were assayed for EBNA using human sera known to contain anti-EBNA antibodies or exemplary receptor molecules of this invention. Tne extracts were either concentrated by precipitation with 2 volumes of ethanol at -20 degrees C. for about 18 hours, and were then dissolved in sample buffer [SB; 10% glycerol, 2% 2-mercaptoethanol, 1% sodium dodecyl sulfate (SDS), 0.002% bromphenol blue, 40 mM Tris-HCl (pH 7.4)] or diluted 1:6 in sample buffer for SDS-polyacrylamide gel electrophoresis (SDS-PAGE). 7.5% Polyacrylamide gels were cast and run according to the procedure of Laemmli, Nature, […] (1970), applying 50 to 200 micorgrams of total protein per lane. […]
Anti-peptide antibodies bound to EBNA protein were detected by reacting the blots with an indicating means. […]

[3] = Circular dichroism spectroscopy of polypeptides in phosphate buffered saline; format: physicochemical; conditions: 1 mg/ml
Description: The conformational properties of the polypeptides were investigated to elucidate any secondary structure that might be necessary for polypeptide immunoreaction with human anti-EBNA antibodies. The polypeptides were dissolved at a concentration of 1 mg/ml in phosphate-buffered saline (PBS). Spectra were taken using 1 ml samples in a Cary 61 spectropolarimeter (Cary Instruments, Applied Physics Corp., Monrovia, Calif.) interfaced and automated with a Digital Equipment Corporation 11/02 computer (Digital Equipment Corporation, Maynard, Mass.).

[4] = system: rabbit anti-polypeptide antibody to polypeptide P62; experiment: Competition ELISA: rabbit anti-polypeptide P62 antibody binding to solid phase P62; conditions: antibody first incubated with competing polypeptide
Description: as §1, §2
Non-specific binding sites were blocked by admixing 200 microliters of 1% bovine serum albumin (BSA) in each well to form another solid-liquid phase admixture, and maintaining that solid-liquid phase admixture for 30 minutes, at 20 degrees C. […]
The antibodies in human sera that immunoreacted with an adsored polypeptide were detected using an indicating means comprising alkaline phosphatase-conjugated goat anti-human Ig antibody (Tago, Burlington, CA). The antibodies in rabbit sera that immunoreacted with an adsorbed polypeptide were detected using an indicating means comprising alkaline phosphatase-conjugated goat anti-rabbit Ig antibody (Kirkegard & Perry Laboratories, Inc., Gaithersburg, Md.). […]

[5] = serum MV post-mononucleosis, dilution 1:20
[6] = serum MV pre-mononucleosis, dilution 1:20
[7] = serum SB post-mononucleosis, dilution 1:20
[8] = serum SB pre-mononucleosis, dilution 1:20
[9] = serum VCA + Normal 1, dilution 1:20
[10] = serum VCA + Normal 2, dilution 1:20

Structure (SMILES)	OD405 × 10^3 obtained with patient antibodies to polypeptide, average ± one standard deviation ([1]; VCA- Normals (n = 27), dilution 1:20) [OD405 × 10^3]	Average titer of Progressive Systemic Schlerosis (PSS) patients to polypeptide compared with normals [1]	Reaction of VCA- sera with polypeptide [1]	Reactivity of sera of EBV non-immune donors to polypeptide [1]	Number of 91 anti-EBNA positive (ACIF) sera positive against polypeptide [1]	Antibodies binding to polypeptide before and after EBV-induced infectious mononucleosis [1]	OD405 × 10^3 obtained with patient antibodies to polypeptide [1, 5] [OD405 × 10^3]	OD405 × 10^3 obtained with patient antibodies to polypeptide [1, 6] [OD405 × 10^3]	OD405 × 10^3 obtained with patient antibodies to polypeptide [1, 7] [OD405 × 10^3]	OD405 × 10^3 obtained with patient antibodies to polypeptide [1, 8] [OD405 × 10^3]	OD405 × 10^3 obtained with patient antibodies to polypeptide [1, 9] [OD405 × 10^3]	OD405 × 10^3 obtained with patient antibodies to polypeptide [1, 10] [OD405 × 10^3]	Reaction of sera of clinically normal VCA+ individuals with polypeptide [1]	Inhibition of recognition of EBNA by anti-P60 serum ([2]; anti-P60 serum 1:50 incubated with 40 ug/ml polypeptide for one hour)	Inhibition of recognition of EBNA by anti-P62 serum [2]	Conformation indicated by circular dichroism spectrum [3]	Time course of anti-P62 antibodies after onset of infectious mononucleosis versus ACIF anti-EBNA titer ([1]; one-half of 8 students (e.g. patient 15))	Time of detection of antibodies against polypeptide after onset of infectious mononucleosis ([1]; other half of 8 students (e.g. patients 14 and 2))	Number of 91 EBNA positive sera immunoreacting with polypeptide ([1]; sera at 1:320 dilution)	Inhibition of binding of anti-polypeptide P62 to solid phase polypeptide P62 [4]
C[C@H](NC(=O)CNC(=O)CNC(=O)[C@H](C)NC(=O)CNC(=O)[C@H](C)NC(=O)CNC(=O)CNC(=O)CN)C(=O)NCC(=O)N[C@@H](C)C(=O)NCC(=O)NCC(=O)NCC(=O)NCC(=O)N[C@@H](CCCNC(=N)N)C(=O)O [Polypeptide P60, H--Gly--Gly--Gly--Ala--Gly--Ala--Gly--Gly--Ala--Gly--Ala--Gly--Gly--Gly--Gly--Arg--OH] (H-GGGAGAGGAGAGGGGR-OH)	45 ± 18	relatively higher average titer	None of the VCA- sera were found to react positively	None of tne sera displayed significant reactivity	91	absent before infection, but appeared afterward	162	72	115	51	154	145	all of the VCA+ indiviuals were positive	innibited	inhibited	very similar spectra				
C[C@H](N)C(=O)NCC(=O)N[C@@H](C)C(=O)NCC(=O)NCC(=O)NCC(=O)N[C@@H](C)C(=O)NCC(=O)NCC(=O)N[C@@H](C)C(=O)NCC(=O)N[C@@H](C)C(=O)NCC(=O)NCC(=O)NCC(=O)N[C@@H](C)C(=O)NCC(=O)NCC(=O)N[C@@H](C)C(=O)NCC(=O)O [Polypeptide P62, H-Ala--Gly--Ala--Gly--Gly--Gly--Ala--Gly--Gly--Ala--Gly--Ala--Gly--Gly--Gly--Ala--Gly--Gly--Ala--Gly--OH] (H-AGAGGGAGGAGAGGGAGGAG-OH)		relatively higher average titer	None of the VCA- sera were found to react positively	None of tne sera displayed significant reactivity	91	absent before infection, but appeared afterward	631	77	514	13	958	819	all of the VCA+ indiviuals were positive		inhibited	relatively stable secondary structure	rose in parallel with the corresponding anti-EBNA titer	detected in the first month after the onset of symptoms	83	
CSCC[C@H](NC(=O)[C@@H]1CCCN1C(=O)[C@H](CCCNC(=N)N)NC(=O)[C@H](CCCCN)NC(=O)[C@H](CCC(=O)O)NC(=O)CNC(=O)[C@H](CCCNC(=N)N)NC(=O)CNC(=O)[C@H](CCCNC(=N)N)NC(=O)CNC(=O)[C@H](CCCNC(=N)N)NC(=O)CNC(=O)[C@H](CCCNC(=N)N)NC(=O)[C@H](C)NC(=O)[C@@H](N)CCCNC(=N)N)C(=O)O [Polypeptide P89, H--Arg--Ala--Arg--Gly--Arg--Gly--Arg--Gly--Arg--Gly--Glu--Lys--Arg--Pro--Met--OH] (H-RARGRGRGRGEKRPM-OH)						no antibodies were produced	25	29	23	9	23	16								did not significantly crossreact; also recorded: did not inhibit

Reference: USRE33897E, “Synthetic polypeptides and antibodies related to Epstein-Barr virus nuclear antigen” (Scripps Clinic and Research Foundation, priority 1989, dated 1992)
